Here are results for 41 molecules from US8680113B2, “BMI-1 protein expression modulators” (PTC Therapeutics, Inc., priority 2008, dated 2014).

As a reminder, the IC50 is the concentration that inhibits the measured activity by half. High values mean lower potency, low ones higher potency.

This assay concerns Bmi-1. Nature of the assay: Sandwich ELISA Assay (Bmi-1 ELISA in HT-1080 cells). In kind it is cell-based, human. The essentials: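 Lysate Bmi-1 was quantified against a recombinant GST-Bmi-1 standard (0-8000 pg/mL) by sandwich ELISA read at OD450 with OD570 reference. The ELISA used mouse monoclonal capture, rabbit anti-Bmi-1, HRP anti-rabbit IgG and TMB. Before lysis, HT-1080 cells seeded at 8000/well were exposed to compounds for 40-48 h at 37°C with 0.5% final DMSO.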
(In general: An ELISA detects its analyte on a solid surface through an enzyme-linked reagent.)
As for `CCCc1nc2ccccn2c1-c1csc(Nc2ccc(C(C)=O)cc2)n1` [Cpd 177, 1-(4-{[4-(2-propylimidazo[1,2-a]pyridin-3-yl)-1,3-thiazol-2-yl]amino}phenyl)ethanone], the IC50 was less than 0.5 µM.

As for `CCCc1nc2ccccn2c1-c1csc(Nc2ccc(Cl)cc2)n1` [Cpd 178, N-(4-chlorophenyl)-4-(2-propylimidazo[1,2-a]pyridin-3-yl)-1,3-thiazol-2-amine], the half-maximal inhibitory concentration (IC50) is less than 0.5 µM. Under `CCCc1nc2ccccn2c1-c1csc(Nc2ccc(Br)cc2)n1` [Cpd 179, N-(4-bromophenyl)-4-(2-propylimidazo[1,2-a]pyridin-3-yl)-1,3-thiazol-2-amine] stands less than 0.5 µM; under `CCCc1nc2ccccn2c1-c1csc(Nc2ccc(OC)cc2)n1` [Cpd 180, N-(4-methoxyphenyl)-4-(2-propylimidazo[1,2-a]pyridin-3-yl)-1,3-thiazol-2-amine], less than 0.5 µM. For `CCCc1nc2ncccn2c1-c1csc(Nc2ccc(OC)c(F)c2)n1` [Cpd 181, N-(3-fluoro-4-methoxyphenyl)-4-(2-propylimidazo[1,2-a]pyrimidin-3-yl)-1,3-thiazol-2-amine], the half-inhibitory concentration (IC50) is less than 0.5 µM. Under `CCCc1nc2ncccn2c1-c1csc(Nc2ccc3c(c2)OCO3)n1` [Cpd 182, N-(1,3-benzodioxol-5-yl)-4-(2-propylimidazo[1,2-a]pyrimidin-3-yl)-1,3-thiazol-2-amine] stands less than 0.5 µM. Molecule `CCCc1nc2ncccn2c1-c1csc(Nc2ccc(N(C)C)cc2)n1` [Cpd 183, N,N-dimethyl-N′-[4-(2-propylimidazo[1,2-a]pyrimidin-3-yl)-1,3-thiazol-2-yl]benzene-1,4-diamine] gave an IC50 of less than 0.5 µM. Under `CCCc1nc2ncccn2c1-c1csc(Nc2ccc(Br)cc2)n1` [Cpd 184, N-(4-bromophenyl)-4-(2-propylimidazo[1,2-a]pyrimidin-3-yl)-1,3-thiazol-2-amine] stands less than 0.5 µM; under `CCCc1nc2ncccn2c1-c1csc(Nc2ccc(I)cc2)n1` [Cpd 185, N-(4-iodophenyl)-4-(2-propylimidazo[1,2-a]pyrimidin-3-yl)-1,3-thiazol-2-amine], less than 0.5 µM; under `CCCc1nc2ncccn2c1-c1csc(Nc2ccc(OC)cc2)n1` [Cpd 186, N-(4-methoxyphenyl)-4-(2-propylimidazo[1,2-a]pyrimidin-3-yl)-1,3-thiazol-2-amine], less than 0.5 µM. The molecule `CCCc1nc2ncccn2c1-c1csc(Nc2ccccc2)n1` [Cpd 187, N-phenyl-4-(2-propylimidazo[1,2-a]pyrimidin-3-yl)-1,3-thiazol-2-amine] returned an IC50 of less than 0.5 µM. Under `COc1cccc(Nc2nc(-c3c(C)nc4ccccn34)cs2)c1` [Cpd 188, N-(3-methoxyphenyl)-4-(2-methylimidazo[1,2-a]pyridin-3-yl)-1,3-thiazol-2-amine] stands less than 0.5 µM. Under `Cc1ccc(N(C)c2nccc(-c3c(C)nc4ccccn34)n2)cc1` [Cpd 189, N-methyl-4-(2-methylimidazo[1,2-a]pyridin-3-yl)-N-(4-methylphenyl)pyrimidin-2-amine] stands less than 0.5 µM. Under `Cc1nc2ccccn2c1-c1ccnc(Nc2cccc(O)c2)n1` [Cpd 190, 3-{[4-(2-methylimidazo[1,2-a]pyridin-3-yl)pyrimidin-2-yl]amino}phenol] stands less than 0.5 µM; under `Cc1ccc(Nc2nc(-c3c(C)nc4ccccn34)cs2)cc1` [Cpd 191, 4-(2-methylimidazo[1,2-a]pyridin-3-yl)-N-(4-methylphenyl)-1,3-thiazol-2-amine], less than 0.5 µM. On to `CCc1ccc(Nc2nc(-c3c(C)nc4ccccn34)cs2)cc1` [Cpd 192, N-(4-ethylphenyl)-4-(2-methylimidazo[1,2-a]pyridin-3-yl)-1,3-thiazol-2-amine], for which the IC50 is less than 0.5 µM. With `CCN(CC)c1ccc(Nc2nc(-c3c(C)nc4ccccn34)cs2)cc1` [Cpd 193, N,N-diethyl-N′-[4-(2-methylimidazo[1,2-a]pyridin-3-yl)-1,3-thiazol-2-yl]benzene-1,4-diamine], the IC50 is less than 0.5 µM.

The molecule `CC(=O)Nc1ccc(Nc2nc(-c3c(C)nc4ccccn34)cs2)cc1` [Cpd 194, N-(4-{[4-(2-methylimidazo[1,2-a]pyridin-3-yl)-1,3-thiazol-2-yl]amino}phenyl)acetamide] displayed a half-maximal inhibitory concentration (IC50) of less than 0.5 µM.

With `FC(F)(F)c1nc2ccccn2c1-c1csc(Nc2ccc3c(c2)OCO3)n1` [Cpd 195, N-(1,3-benzodioxol-5-yl)-4-[2-(trifluoromethyl)imidazo[1,2-a]pyridin-3-yl]-1,3-thiazol-2-amine], the IC50 was less than 0.5 µM. `Cc1nc2ccccn2c1-c1ccnc(Nc2ccc(C(=O)O)cc2)n1` [Cpd 196, 4-{[4-(2-methylimidazo[1,2-a]pyridin-3-yl)pyrimidin-2-yl]amino}benzoic acid] yielded an IC50 of less than 0.5 µM. On to `Cc1nc2ccccn2c1-c1csc(Nc2ccc(Br)cc2)n1` [Cpd 197, N-(4-bromophenyl)-4-(2-methylimidazo[1,2-a]pyridin-3-yl)-1,3-thiazol-2-amine], for which the IC50 is less than 0.5 µM. `Cc1nc2ccccn2c1-c1csc(Nc2ccc(Cl)c(Cl)c2)n1` [Cpd 198, N-(3,4-dichlorophenyl)-4-(2-methylimidazo[1,2-a]pyridin-3-yl)-1,3-thiazol-2-amine] had an IC50 of less than 0.5 µM.

In the case of `Cc1nc2ccccn2c1-c1csc(Nc2ccc(Cl)cc2)n1` [Cpd 199, N-(4-chlorophenyl)-4-(2-methylimidazo[1,2-a]pyridin-3-yl)-1,3-thiazol-2-amine], the IC50 is less than 0.5 µM. As to `Cc1nc2ccccn2c1-c1csc(Nc2ccc(Br)cc2Cl)n1` [Cpd 200, N-(4-bromo-2-chlorophenyl)-4-(2-methylimidazo[1,2-a]pyridin-3-yl)-1,3-thiazol-2-amine], the IC50 was less than 0.5 µM. Under `Cc1nc2ccccn2c1-c1csc(Nc2ccc(O)c(O)c2)n1` [Cpd 201, 4-{[4-(2-methylimidazo[1,2-a]pyridin-3-yl)-1,3-thiazol-2-yl]amino}benzene-1,2-diol] stands less than 0.5 µM; under `COc1ccc(Nc2nc(-c3c(C)nc4ccccn34)cs2)cc1OC` [Cpd 202, N-(3,4-dimethoxyphenyl)-4-(2-methylimidazo[1,2-a]pyridin-3-yl)-1,3-thiazol-2-amine], less than 0.5 µM. `Cc1nc2ccccn2c1-c1csc(Nc2ccc(F)cc2F)n1` [Cpd 203, N-(2,4-difluorophenyl)-4-(2-methylimidazo[1,2-a]pyridin-3-yl)-1,3-thiazol-2-amine]: the IC50 was less than 0.5 µM. Under `CCOc1ccc(Nc2nc(-c3c(C)nc4ccccn34)cs2)cc1` [Cpd 204, N-(4-ethoxyphenyl)-4-(2-methylimidazo[1,2-a]pyridin-3-yl)-1,3-thiazol-2-amine] stands less than 0.5 µM; under `Cc1ccc(Nc2nc(-c3c(C)nc4ccc(Cl)cn34)cs2)c(Br)c1` [Cpd 205, N-(2-bromo-4-methylphenyl)-4-(6-chloro-2-methylimidazo[1,2-a]pyridin-3-yl)-1,3-thiazol-2-amine], less than 0.5 µM.

In turn, `CCN(CC)c1ccc(Nc2nc(-c3c(C)nc4ccc(Cl)cn34)cs2)cc1` [Cpd 206, N′-[4-(6-chloro-2-methylimidazo[1,2-a]pyridin-3-yl)-1,3-thiazol-2-yl]-N,N-diethylbenzene-1,4-diamine] gave a 50% inhibitory concentration (IC50) of less than 0.5 µM.

On to `COc1ccc(Nc2nc(-c3c(C)nc4ccc(Cl)cn34)cs2)cc1OC` [Cpd 207, 4-(6-chloro-2-methylimidazo[1,2-a]pyridin-3-yl)-N-(3,4-dimethoxyphenyl)-1,3-thiazol-2-amine], for which the IC50 was less than 0.5 µM. Under `COc1ccc(Nc2nc(-c3c(C)nc4ccc(Cl)cn34)cs2)c(Br)c1` [Cpd 208, N-(2-bromo-4-methoxyphenyl)-4-(6-chloro-2-methylimidazo[1,2-a]pyridin-3-yl)-1,3-thiazol-2-amine] stands less than 0.5 µM. Take `Cc1cccc(Nc2nc(-c3c(C)nc4ccc(Cl)cn34)cs2)c1` [Cpd 209, 4-(6-chloro-2-methylimidazo[1,2-a]pyridin-3-yl)-N-(3-methylphenyl)-1,3-thiazol-2-amine]: the IC50 is less than 0.5 µM. Regarding `Cc1nc2ccc(Cl)cn2c1-c1csc(Nc2cccc(O)c2)n1` [Cpd 210, 3-{[4-(6-chloro-2-methylimidazo[1,2-a]pyridin-3-yl)-1,3-thiazol-2-yl]amino}phenol], the IC50 is less than 0.5 µM. Consider `CC(=O)c1cccc(Nc2nc(-c3c(C)nc4ccc(Cl)cn34)cs2)c1` [Cpd 211, 1-(3-{[4-(6-chloro-2-methylimidazo[1,2-a]pyridin-3-yl)-1,3-thiazol-2-yl]amino}phenyl)ethanone], for which the half-maximal inhibitory concentration (IC50) was less than 0.5 µM. Under `Cc1nc2ccc(Cl)cn2c1-c1csc(Nc2cccc(Br)c2)n1` [Cpd 212, N-(3-bromophenyl)-4-(6-chloro-2-methylimidazo[1,2-a]pyridin-3-yl)-1,3-thiazol-2-amine] stands less than 0.5 µM; under `Cc1nc2ccc(Cl)cn2c1-c1csc(Nc2cccc(Cl)c2)n1` [Cpd 213, 4-(6-chloro-2-methylimidazo[1,2-a]pyridin-3-yl)-N-(3-chlorophenyl)-1,3-thiazol-2-amine], less than 0.5 µM. Under `Cc1ccc(Nc2nc(-c3c(C)nc4ccc(Cl)cn34)cs2)c(C)c1` [Cpd 214, 4-(6-chloro-2-methylimidazo[1,2-a]pyridin-3-yl)-N-(2,4-dimethylphenyl)-1,3-thiazol-2-amine] stands less than 0.5 µM; under `Cc1nc2ccc(Cl)cn2c1-c1csc(Nc2cccc(F)c2)n1` [Cpd 215, 4-(6-chloro-2-methylimidazo[1,2-a]pyridin-3-yl)-N-(3-fluorophenyl)-1,3-thiazol-2-amine], less than 0.5 µM; under `Cc1cc(Br)ccc1Nc1nc(-c2c(C)nc3ccc(Cl)cn23)cs1` [Cpd 216, N-(4-bromo-2-methylphenyl)-4-(6-chloro-2-methylimidazo[1,2-a]pyridin-3-yl)-1,3-thiazol-2-amine], less than 0.5 µM. Under `COc1cccc(Nc2nc(-c3c(C)nc4ccc(Cl)cn34)cs2)c1` [Cpd 217, 4-(6-chloro-2-methylimidazo[1,2-a]pyridin-3-yl)-N-(3-methoxyphenyl)-1,3-thiazol-2-amine] stands less than 0.5 µM.
